Where a name gives a salt, the structure may show the parent alone. ± gives the standard deviation of the averaged measurements.

The assay concerns SK-ES-1. As to the kind of experiment: relative viability vs DMSO control (72 h) (fraction); higher = more viable cells. Put shortly: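 Plates held 72 h at 37 °C and 5% CO2 contained sarcoma cell lines seeded in 384-well format to reach 80–90% confluence, plus 2.5 µl of serially diluted compound added after 24 h. Source plate concentrations ran from 10 mM to 0.0002 mM, with 0.1% DMSO as vehicle and a 5 µM positive control. Percent growth from ATPLite readings, averaged over up to triplicate wells, gave relative viability. Values were rescaled with 1 as full and 0 as none.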

In the case of `CC(=O)Nc1cccc(-n2c(=O)n(C3CC3)c(=O)c3c(Nc4ccc(I)cc4F)n(C)c(=O)c(C)c32)c1` [Trametinib], the relative viability (0.00017 µM) amounted to 1.03 ± 0.035; the relative viability (0.00051 µM) is 1.04 ± 0.025; the relative viability (0.00152 µM) stood at 0.987 ± 0.031; the relative viability (0.00457 µM) was 0.99 ± 0.028; the relative viability (0.01372 µM) is 0.937 ± 0.077; the relative viability (0.04115 µM) came out at 0.984 ± 0.063. The relative viability runs as follows: (0.1235 µM) 0.976 ± 0.031; (0.3704 µM) 0.969 ± 0.048; (1.111 µM) 0.962 ± 0.05; (3.333 µM) 0.948 ± 0.059; (10 µM) 0.923 ± 0.017.

Take `C=CC(=O)N1CCC[C@@H](n2nc(-c3ccc(Oc4ccccc4)cc3)c3c(N)ncnc32)C1` [Ibrutinib]: the relative viability reads like this: (0.00017 µM) 1.008 ± 0.0073; (0.00051 µM) 1.02 ± 0.054; (0.00152 µM) 1.02 ± 0.026; (0.00457 µM) 1.02 ± 0.054; (0.01372 µM) 1 ± 0.085; (0.04115 µM) 1.04 ± 0.03. Besides, the relative viability runs as follows: (0.1235 µM) 1 ± 0.011; (0.3704 µM) 1.06 ± 0.036; (1.111 µM) 1.057 ± 0.0088; (3.333 µM) 1.02 ± 0.021; (10 µM) 0.743 ± 0.043.

In the case of `COc1cc2/c(=N/c3ccc(Br)cc3F)nc[nH]c2cc1OCC1CCN(C)CC1` [Vandetanib], the relative viability was determined as 1 ± 0.03 (0.00017 µM); 0.992 ± 0.024 (0.00051 µM); 1.02 ± 0.037 (0.00152 µM); 1.033 ± 0.0099 (0.00457 µM); 1.06 ± 0.035 (0.01372 µM); 0.989 ± 0.051 (0.04115 µM). Besides, the relative viability runs as follows: (0.1235 µM) 1.008 ± 0.0093; (0.3704 µM) 0.917 ± 0.033; (1.111 µM) 0.762 ± 0.032; (3.333 µM) 0.389 ± 0.0099; (10 µM) 0.0169 ± 0.0022.

On to `C[C@@H]1COCCN1c1cc(-c2ccnn2C)c2ccnc(-c3ccn[nH]3)c2n1`, for which the relative viability came to 1.03 ± 0.031 (0.00017 µM); 1.05 ± 0.03 (0.00051 µM); 1.03 ± 0.052 (0.00152 µM); 1.09 ± 0.055 (0.00457 µM); 1.05 ± 0.039 (0.01372 µM); 0.856 ± 0.024 (0.04115 µM). For the same compound, the relative viability runs as follows: (0.1235 µM) 0.562 ± 0.037; (0.3704 µM) 0.285 ± 0.0067; (1.111 µM) 0.156 ± 0.0046; (3.333 µM) 0.101 ± 0.0046; (10 µM) 0.112 ± 0.0035.

For `COc1cccc2c1C(=O)c1c(O)c3c(c(O)c1C2=O)C[C@@](O)(C(=O)CO)C[C@@H]3O[C@H]1C[C@H](N)[C@H](O)[C@H](C)O1` [Doxorubicin Hydrochloride], the relative viability is, setting by setting: (0.00017 µM) 0.999 ± 0.033; (0.00051 µM) 1.05 ± 0.074; (0.00152 µM) 1 ± 0.057; (0.00457 µM) 0.991 ± 0.085; (0.01372 µM) 0.604 ± 0.065; (0.04115 µM) 0.307 ± 0.025. Also, the relative viability by setting is: (0.1235 µM) 0.123 ± 0.014; (0.3704 µM) 0.0254 ± 0.0066; (1.111 µM) 0.000533 ± 0.00072; (3.333 µM) -0.000167 ± 0.00091; (10 µM) 0.00357 ± 0.00093.

Turning to `O=C(Nc1cnn2ccc(N3CCC[C@@H]3c3cc(F)ccc3F)nc12)N1CC[C@H](O)C1` [Larotrectinib], the relative viability runs as follows: (0.00017 µM) 1.01 ± 0.018; (0.00051 µM) 1.04 ± 0.048; (0.00152 µM) 1.04 ± 0.026; (0.00457 µM) 1.04 ± 0.064; (0.01372 µM) 1.04 ± 0.038; (0.04115 µM) 1.03 ± 0.053. Moreover, the relative viability is, setting by setting: (0.1235 µM) 1 ± 0.02; (0.3704 µM) 1.02 ± 0.062; (1.111 µM) 1 ± 0.03; (3.333 µM) 0.969 ± 0.034; (10 µM) 1.03 ± 0.058.

Turning to `Cc1cc(C)c(/C=C2\C(=O)Nc3ccccc32)[nH]1` [Semaxanib], the relative viability (0.00017 µM) amounted to 0.972 ± 0.06; the relative viability (0.00051 µM) came to 1.01 ± 0.056; the relative viability (0.00152 µM) amounted to 0.954 ± 0.028; the relative viability (0.00457 µM) came out at 1 ± 0.056; the relative viability (0.01372 µM) came to 0.967 ± 0.055; the relative viability (0.04115 µM) worked out at 0.999 ± 0.018. Further, the relative viability by setting is: (0.1235 µM) 1 ± 0.027; (0.3704 µM) 0.986 ± 0.09; (1.111 µM) 0.925 ± 0.042; (3.333 µM) 0.934 ± 0.052; (10 µM) 0.765 ± 0.068.

For the compound `CC1(C)CNc2cc(NC(=O)c3cccnc3NCc3ccncc3)ccc21` [Motesanib], the relative viability runs as follows: (0.00017 µM) 0.942 ± 0.053; (0.00051 µM) 0.899 ± 0.059; (0.00152 µM) 0.952 ± 0.013; (0.00457 µM) 0.891 ± 0.017; (0.01372 µM) 0.9075 ± 0.0058; (0.04115 µM) 0.938 ± 0.056. The relative viability is, setting by setting: (0.1235 µM) 0.974 ± 0.051; (0.3704 µM) 0.913 ± 0.043; (1.111 µM) 0.954 ± 0.044; (3.333 µM) 0.924 ± 0.053; (10 µM) 0.753 ± 0.038.

In turn, `Cc1nc(-c2cn3c(n2)-c2ccc(-c4cnn(C(C)(C)C(N)=O)c4)cc2OCC3)n(C(C)C)n1` [Taselisib] came in with a relative viability (0.00017 µM) of 0.973 ± 0.069; a relative viability (0.00051 µM) of 0.984 ± 0.066; a relative viability (0.00152 µM) of 0.985 ± 0.013; a relative viability (0.00457 µM) of 0.994 ± 0.028; a relative viability (0.01372 µM) of 0.899 ± 0.074; a relative viability (0.04115 µM) of 0.761 ± 0.038. Moreover, the relative viability is 0.541 ± 0.045 (0.1235 µM); 0.41 ± 0.012 (0.3704 µM); 0.348 ± 0.017 (1.111 µM); 0.288 ± 0.012 (3.333 µM); 0.22127 ± 0.00015 (10 µM).

For `CC(C)NC(=O)C1CCC(n2c(NC(=O)c3ccc(F)cc3)nc3ccc(CN4CCC(C(C)(C)O)CC4)cc32)CC1` (stereo not drawn) [Belizatinib], the relative viability by setting is: (0.00017 µM) 1.03 ± 0.038; (0.00051 µM) 1.02 ± 0.041; (0.00152 µM) 1.06 ± 0.031; (0.00457 µM) 1.05 ± 0.029; (0.01372 µM) 1.05 ± 0.039; (0.04115 µM) 1.08 ± 0.032. Also, the relative viability is, setting by setting: (0.1235 µM) 0.943 ± 0.065; (0.3704 µM) 0.633 ± 0.031; (1.111 µM) 0.311 ± 0.013; (3.333 µM) 0.208 ± 0.01; (10 µM) 0.0946 ± 0.0023.

On to `C=CC(=O)Nc1cccc(Oc2nc(Nc3ccc(N4CCN(C)CC4)cc3)nc3ccsc23)c1` [Olmutinib], for which the relative viability by setting is: (0.00017 µM) 0.979 ± 0.049; (0.00051 µM) 1.029 ± 0.0089; (0.00152 µM) 0.999 ± 0.047; (0.00457 µM) 1.03 ± 0.028; (0.01372 µM) 1.03 ± 0.036; (0.04115 µM) 1.018 ± 0.0064. The relative viability (0.1235 µM) stood at 1.05 ± 0.022; the relative viability (0.3704 µM) stood at 1.05 ± 0.051; the relative viability (1.111 µM) is 0.996 ± 0.059; the relative viability (3.333 µM) turned out to be 0.921 ± 0.011; the relative viability (10 µM) turned out to be 0.339 ± 0.041.

As to `CNC(=O)c1cc(Oc2ccc(NC(=O)Nc3ccc(Cl)c(C(F)(F)F)c3)c(F)c2)ccn1` [Regorafenib], the relative viability by setting is: (0.00017 µM) 1.11 ± 0.054; (0.00051 µM) 1.03 ± 0.027; (0.00152 µM) 1.08 ± 0.032; (0.00457 µM) 1.04 ± 0.017; (0.01372 µM) 1.02 ± 0.085; (0.04115 µM) 1.03 ± 0.014. The relative viability worked out at 1.09 ± 0.036 (0.1235 µM); 1.05 ± 0.047 (0.3704 µM); 0.952 ± 0.05 (1.111 µM); 0.836 ± 0.017 (3.333 µM); 0.523 ± 0.021 (10 µM).

Regarding `COc1cc2c(cc1O)CCN[C@]21CS[C@@H]2c3c(OC(C)=O)c(C)c4c(c3[C@H](COC1=O)N1[C@@H]2[C@H]2c3c(cc(C)c(OC)c3O)C[C@@H]([C@@H]1O)N2C)OCO4` [Trabectedin], the relative viability (2 pM) came to 0.945 ± 0.051; the relative viability (5 pM) came to 0.859 ± 0.046; the relative viability (15 pM) was determined as 0.643 ± 0.086; the relative viability (50 pM) was found to be 0.388 ± 0.069; the relative viability (0.00014 µM) worked out at 0.169 ± 0.019; the relative viability (0.00041 µM) stood at 0.0592 ± 0.008. The compound further yielded a relative viability (0.0012 µM) of 0.00217 ± 0.0018; a relative viability (0.0037 µM) of 3.33e-05 ± 0.00035; a relative viability (0.011 µM) of 0.0054 ± 0.0013; a relative viability (200 fM) of 1.02 ± 0.063; a relative viability (600 fM) of 0.938 ± 0.031.

The values are drawn from the supplement of paper PMC10883282.
